The record followed here is patent US10774051B2, “6-membered heterocyclic derivatives and pharmaceutical composition comprising the same” (Shionogi & Co., Ltd., priority 2015, dated 2020).

A value given as a limit tells only on which side of the number the result lay.

The target in one experiment is human P2X7 receptor (Homo sapiens, UniProt Q99572, R270H/Y155H). As to the kind of experiment: Evaluation of human P2X7 receptor inhibitory activity (Yo-Pro uptake, BzATP stimulation, FLIPR TETRA). In kind it is cell-based. To be noted: 1321N1 cells stably expressing human P2X7 receptor; BzATP stimulation, Yo-Pro uptake; read-out: IC50 (antagonistic activity for the human P2X7 receptor). Put shortly: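 1321N1 cells stably expressing human P2X7 (T606C/G952A SNP variant), in HBSS buffer pH 7.4-7.5 with Yo-Pro, stimulated with BzATP; compound added 8 min after agonist. Fluorescence followed for 20 min on FLIPR; max-minus-min change gave % inhibition, IC50 by logistic fit.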
One may read the IC50 as the concentration that gives 50% inhibition. For the molecule `COc1cn(Cc2cc(F)c(F)c(F)c2)c(Nc2cc3scnc3cc2C)nc1=O` [Compound I-0935], the IC50 was 0.006 µM.

For the molecule `Cc1c(Cl)cccc1Nc1cc(=O)n(C)c(=O)n1Cc1ccccc1` [Compound I-0990], the 50% inhibitory concentration (IC50) worked out at 0.32 µM. Still for that read-out and setting: then `Cn1ccc2c(Nc3nc(=O)c(F)cn3Cc3ccc(F)c(Cl)c3)cccc21` [Compound I-1019], with 0.004 µM; and `COc1cn(Cc2ccccc2)c(NC2CCc3ccccc3C2)nc1=O` (centres unmarked) [Compound I-0187], with 0.23 µM. On the same count and under the same terms, in the case of `COc1cc(C)c(Nc2nc(=O)c(OC)cn2Cc2cc(F)cc(Cl)c2)cc1OC` [Compound I-0452] it was 0.11 µM.

Staying with this experiment, now noted: 1321N1 cells stably expressing human P2X7 receptor; BzATP stimulation, Yo-Pro uptake; read-out: IC50 (antagonistic activity for the human P2X7 receptor), class symbol.
In the case of `COc1cn(Cc2cc(F)cc(F)c2)c(Nc2cc(N3CCCS3(=O)=O)ccc2C)nc1=O` [Compound I-0552], the IC50 was in the range of 0.01 to 0.1 µM. Same read-out and setting: then `COc1cn(Cc2ccccc2COC(F)F)c(Nc2cccc(Cl)c2C)nc1=O` [Compound I-0422], with 0.5 to 1 µM; and `CCc1cccc(Nc2nc(=O)c(OC)cn2Cc2ccccc2)c1CC` [Compound I-0136], with under 0.01 µM; and `COc1cn(Cc2ccc(F)c(Cl)c2)c(Nc2cccc(C(F)(F)F)c2C)nc1=O` [Compound I-0468], with 0.01 to 0.1 µM. The same measure, in the same setting: then `COc1cn(Cc2cc(F)cc(Cl)c2)c(Nc2cccc(C)c2Cl)nc1=O` [Compound I-0577], with 0.01 to 0.1 µM; and `COc1cn(Cc2ccccc2OC(F)F)c(Nc2cccc(Cl)c2C)nc1=O` [Compound I-0474], with under 0.01 µM; and `COc1cn(Cc2cc(F)cc(Cl)c2)c(Nc2cccc(OC(F)F)c2C)nc1=O` [Compound I-0576], with 0.01 to 0.1 µM.

Take `COc1cn(Cc2ccccc2)c(Nc2cc(Cl)c(Cl)cc2C)nc1=O` [Compound I-0459]: the IC50 is under 0.01 µM.

The same experiment, now with this note: antagonistic activity for the human P2X7 receptor; read-out: IC50.
With `Cc1cc(C)c(Nc2nc(=O)c(F)cn2Cc2ccc(F)c(Cl)c2)cc1CO` [Compound I-1089], the IC50 was under 0.01 µM.

`COCc1cn(Cc2cc(F)c(F)c(F)c2)c(Nc2cc(Cl)c(OC)cc2C)nc1=O` [Compound I-1146]: the IC50 is 0.01 to 0.1 µM. As to `Cc1cc(OC(F)F)c(C)cc1Nc1nc(=O)c(F)cn1Cc1cc(F)c(F)c(F)c1` [Compound I-1210], the IC50 was under 0.01 µM. The same measure, in the same setting: in the case of `COc1ccc(Nc2cc(=O)c(OC)cn2Cc2ccccc2)c(C)c1` [Compound I-0959] it was 0.5 to 1 µM; in that of `Cc1cc(Nc2nc(=O)c(F)cn2Cc2cc(F)cc(F)c2)c2cc[nH]c2c1` [Compound I-0705], under 0.01 µM; in that of `COc1cn(Cc2ccc(F)c(Cl)c2)c(Nc2ccccc2Cc2ccccn2)nc1=O` [Compound I-0595], under 0.01 µM.

Take `COc1ccc(Nc2nc(=O)c(F)cn2Cc2ccc(F)c(F)c2)c(C)n1` [Compound I-1049]: the IC50 was in the range of 0.01 to 0.1 µM. `COc1cc(F)c(Nc2nc(=O)c(C)cn2Cc2cc(F)c(F)c(F)c2)cc1OC` [Compound I-1133]: the IC50 is 0.01 to 0.1 µM. On the same count and under the same terms, then `COc1ccc(Nc2nc(=O)c(C(=O)O)nn2Cc2cc(F)c(F)c(F)c2)c(C)c1` [Compound I-1250], with 0.1 to 0.5 µM. On the same count and under the same terms, then `CCOc1ccc(C)c(Nc2nc(=O)c(F)cn2Cc2cc(F)c(F)c(F)c2)c1` [Compound I-1007], with under 0.01 µM; and `COc1ccc(Nc2nc(=O)c(Cl)nn2Cc2cc(F)c(F)c(F)c2)c(C)c1` [Compound I-1265], with 0.01 to 0.1 µM. Same read-out and setting: in the case of `Cn1ccc2c(Nc3nc(=O)c(F)cn3Cc3cc(F)c(F)c(F)c3)cccc21` [Compound I-1018] it was under 0.01 µM; in that of `COc1cn(Cc2cc(F)cc(Cl)c2)c(Nc2cc(-c3nnco3)ccc2C)nc1=O` [Compound I-0667], 0.01 to 0.1 µM. As to `COc1cn(Cc2ccc(F)c(F)c2)c(Nc2cc(-c3ncco3)ccc2C)nc1=O` [Compound I-0604], the IC50 was under 0.01 µM. Still for that read-out and setting: in the case of `Cc1cc2cc(Nc3nc(=O)c(F)cn3Cc3ccc(F)c(F)c3)c(C)cc2[nH]1` [Compound I-1056] it was 0.01 to 0.1 µM; in that of `Cc1cc(OC(F)F)ccc1Nc1nc(=O)c(F)cn1Cc1cc(F)c(F)c(F)c1` [Compound I-1039], 0.01 to 0.1 µM.
